Each structure is given as a SMILES string. Counter-ions that a name gives are not always drawn.

The test system of experiment [1] is K562R cells (drug-resistant K562, high Bcr/Abl protein). The experiment in a line: Apoptosis in drug-resistant K562R cells, morphologic assessment. It counts as cell-based, human.
Protocol: (§1) They are cultured in drug-free medium prior to all experimental procedures.
Values represent the means for three separate experiments performed in triplicate±S.D.
The test system of experiment [2] is K562 human leukemia cells. The experiment in a line: Apoptosis in K562 cells, morphologic assessment of Wright-Giemsa-stained slides. It counts as cell-based.
Protocol: as §1
Assessment of apoptosis: Following drug exposures, cytocentrifuge preparations are stained with Wright-Giemsa and viewed by light microscopy to evaluate the extent of apoptosis as described in Wang Z. et al., 1999 Cancer Res. 59, 1259-67.
Values represent the means for three separate experiments performed in triplicate±SD (standard deviation).
Values represent the means for three separate experiments performed in triplicate±S.D (standard deviation).
The Combination Index (CI) is determined in relation to the fraction of cells affected using Median Dose Effect analysis. Results are representative of three separate experiments.

`CN1CC[C@H](c2c(O)cc(O)c3c(=O)cc(-c4ccccc4Cl)oc23)[C@H](O)C1` [FP, 4H-1-benzopyran-4-one,2-(2-chlorophenyl)-5,7-dihydroxy-8-(3-hydroxy-1-methyl-4-piperidinyl)-,hydrochloride, (−)-cis-]: the “toxicity” value in experiment [1] (48-hr exposure, 150 nM FP) is listed as “non-toxic”. Besides, the “percentage of apoptotic cells, mean” value in experiment [1] (48 h, FP 200 nM) was 1.77%; in experiment [2] (K562, 24 h, FP 150 nM (time course)), 1.40%; in experiment [2] (K562, 48 h, FP 50 nM without SALT I) it was 1.9%; in experiment [2] (K562, 48 h, FP 100 nM without SALT I), 2.4%; in experiment [2] (K562, 48 h, FP 150 nM (time course)), 3.33%; in experiment [2] (K562, 48 h, FP 150 nM without SALT I) it was 3.2%. The “percentage of apoptotic cells, mean” value in experiment [2] (K562, 48 h, FP 200 nM without SALT I) came out at 6.1%; in experiment [2] (K562, 48 h, FP 300 nM without SALT I) it was 18.5%; in experiment [2] (K562, 48 h, SALT I 0 nM + FP 150 nM (FP alone)) it was 0.9%. The compound further had a cell death in experiment [2] (K562, 150 nM FP by itself) of less than 5%.
On to `Cc1ccc(NC(=O)c2ccc(CN3CCN(C)CC3)cc2)cc1Nc1nccc(-c2cccnc2)n1` [SALT I, 4-[(4-methyl-1-piperazin-1-ylmethyl)-N-[4-methyl-3-[[4-(3-pyridinyl)-2-pyrimidinyl]amino]phenyl]benzamide methanesulfonate], for which the “percentage of apoptotic cells, mean” value in experiment [2] (K562, 24 h, SALT I 200 nM (time course)) is given as 2.57%; in experiment [2] (K562, 48 h, FP 0 nM + SALT I 200 nM (SALT I alone)) it was 5.7%; in experiment [2] (K562, 48 h, SALT I 50 nM without FP), 1.9%; in experiment [2] (K562, 48 h, SALT I 100 nM without FP), 1.8%; in experiment [2] (K562, 48 h, SALT I 150 nM without FP), 3.0%; in experiment [2] (K562, 48 h, SALT I 200 nM (time course)) it was 5.97%. Further, the “percentage of apoptotic cells, mean” value in experiment [2] (K562, 48 h, SALT I 200 nM without FP) stood at 4.6%; in experiment [2] (K562, 48 h, SALT I 250 nM without FP), 8.9%; in experiment [2] (K562, 48 h, SALT I 300 nM without FP), 20.3%; in experiment [2] (K562, 48 h, SALT I 400 nM without FP), 30.8%; in experiment [2] (K562, 48 h, SALT I 500 nM without FP), 53.8%. The “induction of apoptosis” value in experiment [2] (K562, 48 hr, SALT I concentrations <300 nM) is “weakly induces apoptosis”. Further, the apoptosis in experiment [2] (parental K562S cells, 1.5 μM SALT I, 48 hr) is greater than 95%.

For the origin of these results see patent US7888341B2, “Combination of glivec (STI571) with a cyclin-dependent kinase inhibitor, especially flavopiridol, in the treatment of cancer” (The United States of America as represented by the …, priority 2002, dated 2011).
